Patent EP1166644A1, “Enzymatic biodegradation of halogenated compounds” (priority 2000, dated 2002)

Tested on: baker's yeast
Assay: Bioconversion (biodegradation) assay with baker's yeast
Format: cell-based, Saccharomyces caerevisae (baker's yeast)
Method: Biodegradation assays were carried out according to the following steps: • Step 1. Culture of microorganisms: The microorganisms studied were allowed to grow on a defined medium, in order to increase biomass and develop possible enzymatic activity. • Step 2. Bioconversion assay: The desired amount of 3-MCPD was added to the reactor, and samples were withdrawn at different reaction time to follow the kinetics of biodegradation. • Step 3. Centrifugation: Samples withdrawn from the mixture were centrifuged, the pellet was discarded and the supernatant was used for further treatment and analysis. • Step 4. Extraction of 3-MCPD: 3-MCPD was extracted from the supernatant using Extrelut columns or the Accelerated Solvent Extractor method, and partitioned into ethyl acetate. • Step 5. Preparation of samples for analysis: The organic phase was concentrated with a rotary evaporator, and transferred to a vial, containing an internal standard (3-monochloro-1-propanol (3-MCP) or 3-MCPD-d5). • Step 6. Analysis: Final detection and monitoring of substrate was accomplished by gas chromatography techniques (GC or GC-MS).
Conditioning of baker's yeast: 60g active dry baker's yeast was added to 300 g distilled water under magnetic stirring for 20 min at room temperature. The yeast cream was then centrifuged at 5000 rpm for 15 min, at 4°C (Beckman Model J2-21M Centrifuge) and supernatant was discarded. The pellet was resuspended in equivalent amount (225ml) of distilled water. The obtained yeast cream solution (pH 5.8) was then used for bioconversion assays.
Bioconversion assay: 150 g of the yeast cream solution obtained as described above was placed in a 200 ml reactor vessel equipped with an electrode and a magnetic stirrer (500 rpm). The flask was kept at 28°C using an oil bath equipped with a thermostat (Heidolph MR 3003), and pH was adjusted to the desired pH condition (pH 6.2, pH 7.0, or pH 8.2) with 2M NaOH solution.
[…] The pH was automatically maintained throughout the reaction with regular adjunction of 2M NaOH (Metrohm 691 pH-Meter, equipped with Metrohm Impulsomat 614 and Dosimat 665).
Aliquots of 6 ml were withdrawn from the reaction mixture at different incubation times and centrifuged at 3000 rpm, during 4 min, at 25°C (Beckman Model TJ6 Centrifuge). The pellet was discarded, and the supernatant absorbed onto an Extrelut 3 column or hydromatrix column (placed in the Accelerated Solvent Extractor). 3-MCPD was then partitioned into ethyl acetate, volume was reduced to 2 ml by rotary evaporation, and transferred to a 10 ml graduated tube. 1ml of the internal standard (3-MCP or 3-MCPD-d5) was added to the vial and made up to volume with ethyl acetate. Finally, the extract was dried over anhydrous sodium sulfate, and analyzed for 3-MCPD content by gas chromatography (GC or GC-MS).
The study of 3-MCPD biodegradation by baker's yeast was made by varying different parameters and measuring their influence on the yield and rate of 3-MCPD degradation. The effect of the following parameters were studied: • pH 6.2, 7.0 and 8.2 • presence of glucose in the reaction mixture • substrate stereospecificity: (R)-and (S)-enantiomers • substrate concentration: 800 ppb and 3000 ppm
The results of the biodegradation assays are reported as a percentage of conversion of 3-MCPD as function of reaction time.
Final conversion values were referred to 48h reaction time in order to compare the different biodegradation assays performed. Comparison of bioconversions after 48 h reaction time has been chosen in respect of the enzymatic nature of the reaction studied (many non-enzymatic reactions could occur in a longer time frame).
A control vial (reaction medium with substrate, but without microorganism) was run alongside the reaction. This control permitted the subtraction of the non-enzymatic conversion of 3-MCPD under the experimental conditions tested. […]

[1] = 3000 ppm, pH 8.2, 28°C, without glucose
[2] = 800 ppb, pH 8.2, 28°C, without glucose
[3] = 3000 ppm, pH 6.2, 28°C, without glucose
[4] = 3000 ppm, pH 7.0, 28°C, without glucose

Compound	Biodegradation of 3-MCPD with baker's yeast, After 24 h [1]	Biodegradation of 3-MCPD with baker's yeast, After 48 h [1]	Biodegradation of 3-MCPD with baker's yeast, After 24 h [2]	Biodegradation of 3-MCPD with baker's yeast, After 24 h (800 ppb, pH 8.2, 28°C, without glucose, listed as racemic 3-MCPD)	Biodegradation of 3-MCPD with baker's yeast, After 48 h [2]	highest conversion (2000 ppm, pH 8.2, in the presence of glucose, after 24h reaction)	Biodegradation of 3-MCPD with baker's yeast, After 24 h [3]	Biodegradation of 3-MCPD with baker's yeast, After 48 h [3]	Biodegradation of 3-MCPD with baker's yeast, After 24 h [4]	Biodegradation of 3-MCPD with baker's yeast, After 48 h [4]	Biodegradation of 3-MCPD with baker's yeast, After 48 h (3000 ppm, pH 8.2, 28°C, without glucose, listed as 3-MCPD)	Biodegradation of 3-MCPD with baker's yeast, After 48 h (3000 ppm, pH 8.2, 28°C, without glucose, listed as racemic 3-MCPD)	Biodegradation of 3-MCPD with baker's yeast, After 24 h (3000 ppm, pH 8.2, + glucose)	Biodegradation of 3-MCPD with baker's yeast, After 48 h (3000 ppm, pH 8.2, + glucose)
OC[C@@H](O)CCl [(R)-3-MCPD, (R)-(-)-3-monochloro-1,2-propanediol]	20%	60%	–	–	–	–	–	–	–	–	–	–	–	–
OCC(O)CCl (racemic) [(R,S)-3-MCPD, 3-Monochloro-1,2-propanediol]	26%	45%	50%	about 50%	70%	60%	8%	12%	20%	35%	45%	about 50%	60%	68%
OC[C@H](O)CCl [(S)-3-MCPD, (S)-(+)-3-monochloro-1,2-propanediol]	55%	85%	–	–	–	–	–	–	–	–	–	–	–	–
